Assay results published in US9351955B2, “Compounds and pharmaceutical compositions thereof for the treatment of cystic fibrosis” (Galapagos NV, priority 2013, dated 2016).
“And” between values parts separate entries of the source, which are not always exact repeats. Equal entries are not always repeated. Where two headings read alike, the source gives them in different places.

Key:
Format in all cases: cell-based
CFTR ΔF508 = molecular target: T1, CFTR ΔF508 (Homo sapiens, UniProt P13569, DEL508-508); experiment: TECC assay, primary bronchial epithelial cells from CF patients homozygous for CFTR ΔF508; conditions: for ΔIsc / Current increase: TECC assay; for Current increase: compound at 50 nM, difference between ΔIsc with compound and ΔIsc DMSO (baseline); for activity on the CFTR protein in TECC assay (ΔISC vs DMSO baseline): at 3 μM, or 50 nM, or 50/100/200 nM
T1 construct: host or cells: primary bronchial epithelial cells from CF patients homozygous for ΔF508, pre-treated with VX809
T1 sequence (P13569 with tags, fused parts or gaps DEL508-508): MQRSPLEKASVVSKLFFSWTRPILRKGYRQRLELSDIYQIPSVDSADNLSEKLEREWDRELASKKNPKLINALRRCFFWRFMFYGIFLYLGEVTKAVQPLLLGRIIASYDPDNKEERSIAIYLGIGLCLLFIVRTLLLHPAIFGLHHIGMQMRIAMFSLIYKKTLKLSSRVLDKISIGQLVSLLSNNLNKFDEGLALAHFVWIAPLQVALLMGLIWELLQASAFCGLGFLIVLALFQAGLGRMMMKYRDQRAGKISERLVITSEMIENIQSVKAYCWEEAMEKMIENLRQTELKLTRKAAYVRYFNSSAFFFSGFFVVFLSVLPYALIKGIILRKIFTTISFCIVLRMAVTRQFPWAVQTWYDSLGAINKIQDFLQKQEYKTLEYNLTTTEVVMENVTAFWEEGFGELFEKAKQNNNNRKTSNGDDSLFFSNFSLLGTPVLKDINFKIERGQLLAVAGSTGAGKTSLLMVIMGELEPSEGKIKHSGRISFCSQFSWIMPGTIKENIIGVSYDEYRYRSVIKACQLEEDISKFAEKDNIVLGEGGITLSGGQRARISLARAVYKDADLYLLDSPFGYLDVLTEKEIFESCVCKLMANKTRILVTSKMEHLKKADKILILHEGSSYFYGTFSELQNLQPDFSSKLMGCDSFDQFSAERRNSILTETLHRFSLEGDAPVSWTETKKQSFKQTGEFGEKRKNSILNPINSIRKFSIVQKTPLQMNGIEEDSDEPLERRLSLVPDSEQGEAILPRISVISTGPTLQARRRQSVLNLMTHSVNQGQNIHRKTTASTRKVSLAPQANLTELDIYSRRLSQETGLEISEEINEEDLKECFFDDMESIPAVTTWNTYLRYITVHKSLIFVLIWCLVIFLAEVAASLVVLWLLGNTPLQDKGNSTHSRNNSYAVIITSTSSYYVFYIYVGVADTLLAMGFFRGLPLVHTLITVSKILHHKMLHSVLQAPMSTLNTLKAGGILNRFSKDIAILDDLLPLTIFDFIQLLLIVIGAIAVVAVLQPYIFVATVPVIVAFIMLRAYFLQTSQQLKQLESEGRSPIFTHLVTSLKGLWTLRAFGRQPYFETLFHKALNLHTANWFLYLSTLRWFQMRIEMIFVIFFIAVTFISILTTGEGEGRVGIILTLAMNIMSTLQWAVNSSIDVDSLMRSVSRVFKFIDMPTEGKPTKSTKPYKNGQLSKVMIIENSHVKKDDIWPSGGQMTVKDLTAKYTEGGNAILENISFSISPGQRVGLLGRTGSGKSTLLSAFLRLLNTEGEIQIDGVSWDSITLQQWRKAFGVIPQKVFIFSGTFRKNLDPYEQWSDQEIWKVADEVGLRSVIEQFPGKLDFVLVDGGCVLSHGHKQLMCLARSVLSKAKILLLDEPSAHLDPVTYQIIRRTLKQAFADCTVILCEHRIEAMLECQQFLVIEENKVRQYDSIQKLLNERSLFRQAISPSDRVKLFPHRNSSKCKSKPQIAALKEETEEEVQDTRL
Description: 7.2.1. Primary Bronchial Epithelial Cells Protocol
The TECC (Tranepithelial Clamp Circuit, EP-design) assay measures the functionality of the cystic fibrosis Transmembrane Conductance regulator (CFTR) by measuring the short circuit current (ISC) generated over the basolateral and apical membrane of lung epithelial cells. In TECC the transepithelial potential PD and transepithelial resistance (Rt) are measured in an open circuit and transformed to ISC using Ohm's law. 24 wells can be measured simultaneously allowing a higher throughput compared to Ussing chambers.
For this purpose, bronchial epithelial cells isolated from CF patients homozygous for the CFTR ΔF508 mutation (hAEC-CF, Epithelix) are plated on type IV collagen-coated Transwell supports (Costar). Human airway epithelia are generated by provision of an air-liquid interface for 21 days to form well-differentiated polarized cultures that resemble in vivo pseudo-stratified ciliated epithelium (Fulcher et al., 2005). In the case of the homozygous ΔF508 CFTR samples, the differentiated cells are treated with 3 μM VX809 (2626 South Loop West, Suite 225, Houston, Tex. 77054 USA, Cat n#51565) to allow sufficient expression of properly folded CFTR protein on the membrane (48 hours basolateral treatment and 24 hours apical treatment), prior to electrophysiological recordings. […] G551D/ΔF508, differentiated cells are used as such for the recordings.
Information on the compounds can be retrieved on the homozygous ΔF508 CFTR samples looking at increased CFTR activity when compounds are added in an acute mode or in a chronic mode. On G551D/ΔF508 CFTR heterozygous samples compounds are added in an acute mode to the differentiated cells.
For the acute mode, for electrophysiological recording, the human airway epithelia are mounted in the TECC heating plate for electrophysiological measurement and kept at 37° C. The epithelia are bathed in a NaCl-Ringer solution (120 mM NaCl, 25 mM NaHCO3, 1.2 mM CaCl2, 1.2 mM MgCl2, 0.8 mM KH2PO4, 0.8 mM K2HPO4, pH 7.4, 5 mM glucose) on both the basolateral and apical sides. Apical amiloride is used to inhibit the endogenous ENaC currents while forkolin is applied on both apical and basolateral side to stimulate CFTR. After forskolin triggering, compounds are added on both sides to test their potential for increasing CFTR gating. Measurements are done during a 20 minute timeframe with recordings every 2 minutes. The increase in ISC is used as a measure for the increased CFTR activity, EC50 values can be generated by measuring impact of different concentrations of compound on ISC on primary cells, for this purpose each transwell is treated with a different compound concentration. Inh-172, an inhibitor specific for CFTR, is used to test the specificity of the tested compounds.
For the chronic mode, the differentiated cells are treated with 3 μM VX809 (2626 South Loop West, Suite 225, Houston, Tex. 77054 USA, Cat n#51565) and potentiator compounds at different concentrations (48 hours basolateral treatment and 24 hours apical treatment), prior to electrophysiological recordings. For electrophysiological recording, the human airway epithelia are mounted in the TECC heating plate for electrophysiological measurement and kept at 37° C. […]

CFTR ΔF508 mutant [1] = molecular target: T2, CFTR ΔF508 mutant (Homo sapiens, UniProt P13569, DEL508-508); experiment: YFP-halide influx assay for the CFTR-ΔF508 mutation (96 well, CFBE41o- cells); conditions: read-out: EC50 measured by YFP-halide influx assay for the CFTR-ΔF508
T2 construct: expressed in transfected cells; host or cells: CFBE41o- (adenoviral transduction)
T2 sequence (P13569 with tags, fused parts or gaps DEL508-508): as above
Text: 6.1. YFP-Halide Influx Assay for the CFTR-ΔF508 Mutation
The YFP halide influx assay measures the functionality of the cystic fibrosis Transmembrane Conductance regulator (CFTR) channels in the cystic fibrosis bronchial epithelium cell line CFBE41o-. The assay is used to evaluate the capacity of compounds to increase the open probability of existing CFTR channels in the membrane. It makes use of the observation that the yellow fluorescent protein (YFP) variant YFP H148Q, I152L has its fluorescence substantially quenched by halide ions like Cl^− and I^−. (Galietta et al., 2001; Nagai et al., 2002)
For this purpose, CFBE410-cells are seeded in 96 well plates (6000 CFBE cells/well). One day after seeding, the CFBE cells are transduced with adenoviral vectors that direct the expression of the CFTR ΔF508 mutant and of the YFP reporter. Cells are incubated at 27° C., 5% CO2 for 24 hours so as to allow for the proper folding and migration to the membrane of the CFTR channel or treated with a CFTR modulator during 24 h at 37° C.
The […] quenching of fluorescence is recorded immediately after injection of I^− for 7 seconds. The capacity of a compound to increase the channel opening is directly correlated with the decrease in fluorescence, and is expressed as (1-(fluorescence after 7 seconds (F)/fluorescence before injection (F0))) and an EC50 can be derived from a (1−F/F0) vs compound concentration plot.

CFTR G551D mutant = molecular target: T3, CFTR G551D mutant (Homo sapiens, UniProt P13569, G551D); experiment: YFP-halide influx assay for the CFTR-G551D mutation (HEK293 cells); conditions: read-out: EC50 measured by YFP-halide influx assay for the CFTR-G551D
T3 construct: expressed in transfected cells; host or cells: HEK293 (reverse transfection with plasmids)
T3 sequence (P13569 whole entry G551D): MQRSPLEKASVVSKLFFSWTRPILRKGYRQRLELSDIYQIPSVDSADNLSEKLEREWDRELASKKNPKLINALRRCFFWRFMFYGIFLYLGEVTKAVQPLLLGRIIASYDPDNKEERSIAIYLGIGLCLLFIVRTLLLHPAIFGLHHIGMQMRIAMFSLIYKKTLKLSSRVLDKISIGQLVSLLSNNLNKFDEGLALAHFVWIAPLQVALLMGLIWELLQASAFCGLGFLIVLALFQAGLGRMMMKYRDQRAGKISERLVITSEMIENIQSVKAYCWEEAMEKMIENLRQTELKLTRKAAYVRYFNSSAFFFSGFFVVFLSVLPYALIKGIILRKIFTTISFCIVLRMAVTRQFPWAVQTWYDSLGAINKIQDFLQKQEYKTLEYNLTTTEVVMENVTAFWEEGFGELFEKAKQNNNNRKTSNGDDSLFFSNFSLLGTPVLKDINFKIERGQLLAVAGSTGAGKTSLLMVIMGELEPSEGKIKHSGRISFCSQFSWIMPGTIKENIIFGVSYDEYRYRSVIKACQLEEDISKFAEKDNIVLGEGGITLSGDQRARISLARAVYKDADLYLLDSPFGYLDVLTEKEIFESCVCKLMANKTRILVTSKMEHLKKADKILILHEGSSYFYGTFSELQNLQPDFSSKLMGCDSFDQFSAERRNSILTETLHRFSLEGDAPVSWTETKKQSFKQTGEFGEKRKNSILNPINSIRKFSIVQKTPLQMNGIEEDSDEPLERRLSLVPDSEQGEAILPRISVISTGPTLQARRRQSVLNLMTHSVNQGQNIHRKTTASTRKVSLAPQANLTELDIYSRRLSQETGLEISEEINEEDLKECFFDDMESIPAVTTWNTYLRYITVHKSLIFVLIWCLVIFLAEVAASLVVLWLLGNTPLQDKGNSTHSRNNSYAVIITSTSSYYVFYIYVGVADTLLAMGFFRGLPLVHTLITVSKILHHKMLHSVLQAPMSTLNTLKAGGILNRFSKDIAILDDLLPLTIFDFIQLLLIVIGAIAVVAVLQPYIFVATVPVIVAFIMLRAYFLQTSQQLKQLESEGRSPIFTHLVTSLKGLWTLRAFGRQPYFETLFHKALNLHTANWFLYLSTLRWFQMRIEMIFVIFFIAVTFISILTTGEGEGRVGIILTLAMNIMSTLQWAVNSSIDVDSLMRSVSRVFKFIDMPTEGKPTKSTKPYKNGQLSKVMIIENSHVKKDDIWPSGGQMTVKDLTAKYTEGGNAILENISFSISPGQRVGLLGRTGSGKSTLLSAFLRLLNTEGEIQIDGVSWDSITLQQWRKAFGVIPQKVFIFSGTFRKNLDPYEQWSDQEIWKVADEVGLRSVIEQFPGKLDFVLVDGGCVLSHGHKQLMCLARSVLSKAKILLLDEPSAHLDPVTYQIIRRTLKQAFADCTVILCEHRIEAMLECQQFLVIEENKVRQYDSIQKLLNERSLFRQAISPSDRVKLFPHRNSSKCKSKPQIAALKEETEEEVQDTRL
Procedure, shortened: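 HEK293 cells reverse-transfected with CFTR G551D and halide-sensitive YFP, expressed 24 h at 37 °C. Iodide-induced fluorescence quench recorded for 7 s after I^− injection; response as 1−F/F0, EC50 from concentration plot.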

CFTR ΔF508 mutant [2] = molecular target: T2, CFTR ΔF508 mutant; experiment: YFP-halide influx assay for the CFTR-ΔF508 mutation (384 well, CFBE41o- cells, FDSS/μCell); conditions: forskolin 10.67 μM, fluorescence after 36 seconds, read-out: EC50 measured by YFP-halide influx assay for the CFTR-ΔF508
Procedure, shortened: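 CFBE41o- cells were adenovirally transduced with ΔF508 CFTR and the YFP H148Q/I152L reporter. Cells were then held 24 h at 27 °C or treated 24 h at 37 °C with a CFTR modulator. Iodide-induced quench was recorded for 2 min, and EC50 was derived from 1−F/F0 at 36 s against compound concentration.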

[3] = comparative compounds, HEK293 cells
[4] = compounds of the invention, 96 well, forskolin 10.67 μM
[5] = HEK293 cells expressing CFTR G551D and YFP reporter, forskolin 10.67 μM

| SMILES | EC50 (CFTR ΔF508 mutant [1]; [4]) | EC50 (CFTR ΔF508 mutant [2]) | EC50 (CFTR G551D mutant; [5]) | other results |
| --- | --- | --- | --- | --- |
| CN1CCc2c(sc(NC(=O)c3ccccc3O)c2C(N)=O)C1 [A, 2-(2-hydroxybenzamido)-6-methyl-4,5,6,7-tetrahydrothieno[2,3-c]pyridine-3-carboxamide, reference compound] | – | – | – | ΔIsc (CFTR ΔF508; compound at 50 nM (Table XV)): −0.3248 μA/cm^2; ΔIsc (CFTR ΔF508; compound at 50 nM (Table XVI)): −0.3807 μA/cm^2; Current increase (CFTR ΔF508): −0.0559 μA/cm^2; ΔIsc (CFTR ΔF508; compound at 100 nM (Table XVI)): −0.5401 μA/cm^2; ΔIsc (CFTR ΔF508; compound at 200 nM (Table XVI)): −0.6598 μA/cm^2; activity on the CFTR protein in TECC assay (ΔISC vs DMSO baseline) (CFTR ΔF508): no such activity; EC50 (CFTR ΔF508 mutant [1]; comparative compounds): > 10000 nM; EC50 (CFTR G551D mutant; [3]): > 10000 nM |
| NC(=O)c1c(NC(=O)c2ccccc2Cl)sc2c1CCCC2 [B, 2-(2-chlorobenzamido)-4,5,6,7-tetrahydrobenzo[b]thiophene-3-carboxamide, reference compound] | – | – | – | ΔIsc (CFTR ΔF508; compound at 50 nM (Table XV)): 0.1807 μA/cm^2; ΔIsc (CFTR ΔF508; compound at 50 nM (Table XVI)): 0.1807 μA/cm^2; Current increase (CFTR ΔF508): 0.5055 μA/cm^2; ΔIsc (CFTR ΔF508; compound at 100 nM (Table XVI)): 0.4762 μA/cm^2; ΔIsc (CFTR ΔF508; compound at 200 nM (Table XVI)): 0.8022 μA/cm^2; activity on the CFTR protein in TECC assay (ΔISC vs DMSO baseline) (CFTR ΔF508): no such activity; EC50 (CFTR ΔF508 mutant [1]; comparative compounds): < 370 nM |
| CC1(C)Cc2c(sc(NC(=O)C(C)(C)O)c2C(N)=O)C(C)(C)O1 [Compound 6, 2-(2-hydroxy-2-methylpropanamido)-5,5,7,7-tetramethyl-5,7-dihydro-4H-thieno[2,3-c]pyran-3-carboxamide] | 75.8 nM | 16.2 nM | – | EC50 (CFTR ΔF508; primary bronchial epithelial cells, CFTR ΔF508, several values in a cell = repeat determinations): 165 nM and 60.9 nM |
| CCc1n[nH]c(C(=O)Nc2sc3c(c2C(N)=O)CC(C)(C)OC3(C)C)c1C [Compound 19, N-(3-carbamoyl-5,5,7,7-tetramethyl-5,7-dihydro-4H-thieno[2,3-c]pyran-2-yl)-3-ethyl-4-methyl-1H-pyrazole-5-carboxamide] | 41.8 nM | 7.33 nM | 357 nM | – |
| CC1(C)Cc2c(sc(NC(=O)c3cccnc3F)c2C(N)=O)C(C)(C)O1 [Compound 20, N-(3-carbamoyl-5,5,7,7-tetramethyl-5,7-dihydro-4H-thieno[2,3-c]pyran-2-yl)-2-fluoronicotinamide] | 305 nM | 422 nM | 3290 nM | – |
| CC1(C)Cc2c(sc(NC(=O)c3cccnc3O)c2C(N)=O)C(C)(C)O1 [Compound 23, N-(3-carbamoyl-5,5,7,7-tetramethyl-5,7-dihydro-4H-thieno[2,3-c]pyran-2-yl)-2-oxo-1,2-dihydropyridine-3-carboxamide] | 102 nM | 190 nM | 1270 nM | – |
| CC1(C)Cc2c(sc(NC(=O)c3ccccc3-c3ncc[nH]3)c2C(N)=O)C(C)(C)O1 [Compound 27, 2-(2-(1H-imidazol-2-yl)benzamido)-5,5,7,7-tetramethyl-5,7-dihydro-4H-thieno[2,3-c]pyran-3-carboxamide] | 440 nM | 189 nM | 1670 nM | – |
| NC(=O)c1c(NC(=O)c2cc[nH]n2)sc2c1CCOC2 [E, N-(3-carbamoyl-5,7-dihydro-4H-thieno[2,3-c]pyran-2-yl)-1H-pyrazole-3-carboxamide, reference compound] | – | – | – | ΔIsc (CFTR ΔF508; compound at 50 nM (Table XV)): 0.1663 μA/cm^2; ΔIsc (CFTR ΔF508; compound at 50 nM (Table XVI)): 0.1663 μA/cm^2; Current increase (CFTR ΔF508): 0.4911 μA/cm^2; ΔIsc (CFTR ΔF508; compound at 100 nM (Table XVI)): −0.0318 μA/cm^2; ΔIsc (CFTR ΔF508; compound at 200 nM (Table XVI)): 0.5241 μA/cm^2; activity on the CFTR protein in TECC assay (ΔISC vs DMSO baseline) (CFTR ΔF508): no such activity; EC50 (CFTR ΔF508 mutant [1]; comparative compounds): 479 nM; EC50 (CFTR G551D mutant; [3]): 2900 nM |

Second part, led by results:

| EC50 (CFTR ΔF508 mutant [1]; [4]) | EC50 (CFTR ΔF508 mutant [2]) | EC50 (CFTR G551D mutant; [5]) | SMILES | other results |
| --- | --- | --- | --- | --- |
| 378 nM | 147 nM | 2000 nM | CC1(C)Cc2c(sc(NC(=O)c3ccccc3NS(C)(=O)=O)c2C(N)=O)C(C)(C)O1 [Compound 28, 5,5,7,7-tetramethyl-2-(2-(methylsulfonamido)benzamido)-5,7-dihydro-4H-thieno[2,3-c]pyran-3-carboxamide] | – |
| 141 nM | 101 nM | 6660 nM | CC1(C)Cc2c(sc(NC(=O)C3CCNC3=O)c2C(N)=O)C(C)(C)O1 (centres unmarked) [Compound 30, N-(3-carbamoyl-5,5,7,7-tetramethyl-5,7-dihydro-4H-thieno[2,3-c]pyran-2-yl)-2-oxopyrrolidine-3-carboxamide] | – |
| 23 nM | 39.6 nM | 854 nM | CC1(C)Cc2c(sc(NC(=O)c3n[nH]c4c3COCC4)c2C(N)=O)C(C)(C)O1 [Compound 32, N-(3-carbamoyl-5,5,7,7-tetramethyl-5,7-dihydro-4H-thieno[2,3-c]pyran-2-yl)-1,4,6,7-tetrahydropyrano[4,3-c]pyrazole-3-carboxamide] | – |
| 13 nM | 12.4 nM | 716 nM | CCc1[nH]nc(C(=O)Nc2sc3c(c2C(N)=O)CC(C)(C)OC3(C)C)c1Cl [Compound 36, N-(3-carbamoyl-5,5,7,7-tetramethyl-5,7-dihydro-4H-thieno[2,3-c]pyran-2-yl)-4-chloro-5-ethyl-1H-pyrazole-3-carboxamide] | – |
| 16 nM | 25.4 nM | 892 nM | CC1(C)Cc2c(sc(NC(=O)c3[nH]nc4c3COC4)c2C(N)=O)C(C)(C)O1 [Compound 37, N-(3-carbamoyl-5,5,7,7-tetramethyl-5,7-dihydro-4H-thieno[2,3-c]pyran-2-yl)-4,6-dihydro-1H-furo[3,4-c]pyrazole-3-carboxamide] | – |
